System: NCI-H226
Assay: 72H TEAD Proliferation Assay (Cell Titer Glo 2.0)
Assay type: cell-based
Details: Homo sapiens, NCI-H226, 72 h, CTG 2.0, cell line not given (NCI-H226 responsive, NCI-H28 non-responsive)
Procedure, shortened: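 Growth read-out is ATP luminescence (CellTiter-Glo 2.0) after 72 h compound exposure, corrected for no-CTG background and day-0 values, with GI50 from nonlinear regression. Sensitive line NCI-H226 (NF2-deficient); non-responsive NCI-H28 (NF2 wild type) distinguishes TEAD-driven from nonspecific growth inhibition.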

| GI50 | SMILES |
| --- | --- |
| ≤ 1000 nM | COc1cc(-c2ccc(C(F)(F)F)cc2)nc2cc(C(=O)N[C@@H](C)c3ccccc3)ccc12 [I-351, (S)-4-methoxy-N-(1-phenylethyl)-2-(4-(trifluoromethyl)phenyl)quinoline-7-carboxamide] |
| 5000 to 10000 nM | O=C(O)C1CCN(c2cn3ccnc3c(-c3ccc(C(F)(F)F)cc3)n2)C1 (stereo not shown) [I-234, 1-(8-(4-(Trifluoromethyl)phenyl)imidazo[1,2-a]pyrazin-6-yl)pyrrolidine-3-carboxylic acid] |
| ≤ 1000 nM | CC(C)(C)c1ccc(-c2nc3cc(C(N)=O)ccc3n3cccc23)cc1 [I-166, 4-(4-(tert-butyl)phenyl)pyrrolo[1,2-a]quinoxaline-7-carboxamide] |
| ≤ 1000 nM | C=CC(=O)NCc1nc(-c2ccc(C(F)(F)F)cc2)c2ncccc2n1 [I-305, N-((4-(4-(trifluoromethyl)phenyl)pyrido[3,2-d]pyrimidin-2-yl)methyl)acrylamide] |
| ≤ 1000 nM | CC(C)(C)c1ccc(-c2nc3cc(C(=O)O)ccc3n3ccc(F)c23)cc1 [I-115, 4-(4-(tert-Butyl)phenyl)-3-fluoropyrrolo[1,2-a]quinoxaline-7-carboxylic acid] |
| 5000 to 10000 nM | COc1c(C)c(-c2ccc(C(F)(F)F)cc2)nc2cc(C(=O)N[C@H](C)CO)ccc12 [I-431, (R)—N-(1-hydroxypropan-2-yl)-4-methoxy-3-methyl-2-(4-(trifluoromethyl)phenyl)quinoline-7-carboxamide] |
| 1000 to 5000 nM | CC(=O)c1cc(-c2ccc(C(F)(F)F)cc2)nc2cc(C(=O)O)ccc12 [I-396, 4-acetyl-2-(4-(trifluoromethyl)phenyl)quinoline-7-carboxylic acid] |
| ≤ 1000 nM | O=C(O)c1ccc2c(c1)nc(N1CCC3(CCCC3)CC1)c1cccn12 [I-8, 4-(8-Azaspiro[4.5]decan-8-yl)pyrrolo[1,2-a]quinoxaline-7-carboxylic acid] |
| ≤ 1000 nM | CCNS(=O)(=O)c1ccc2c(OC)cc(-c3ccc(C(F)(F)F)cc3)nc2c1 [I-417, N-ethyl-4-methoxy-2-(4-(trifluoromethyl)phenyl)quinoline-7-sulfonamide] |
| ≤ 1000 nM | Cc1cc(-c2ccc(C(F)(F)F)cc2)nc2cc(C(=O)N[C@@H](C)c3cccc(C(=O)O)c3)ccc12 [I-267, (S)-3-(1-(4-methyl-2-(4-(trifluoromethyl)phenyl)quinoline-7-carboxamido)ethyl)benzoic acid] |
| 1000 to 5000 nM | CC(C)(C)c1ccc(-c2nc3cc(C(N)=O)ccc3n3ccnc23)cc1 [I-73, 4-(4-(tert-Butyl)phenyl)imidazo[1,2-a]quinoxaline-7-carboxamide] |
| > 10000 nM | COc1cn2ccnc2c(-c2ccc(C(C)(C)C)cc2)n1 [I-149, 8-(4-(tert-Butyl)phenyl)-6-methoxyimidazo[1,2-a]pyrazine] |
| ≤ 1000 nM | O=C(O)c1ccc2c(OC3CC3)cc(-c3ccc(C(F)(F)F)cc3)nc2c1 [I-395, 4-cyclopropoxy-2-(4-(trifluoromethyl)phenyl)quinoline-7-carboxylic acid] |
| > 10000 nM | O=C(O)c1ccc2c(c1)nc(-c1ccccc1)c1nccn12 [I-63, 4-Phenylimidazo[1,2-a]quinoxaline-7-carboxylic acid] |
| > 10000 nM | C=CC(=O)Nc1cc(-c2ccc(C(C)(C)C)cc2)nc2cc(C(=O)O)ccc12 [I-103, 4-Acrylamido-2-(4-(tert-butyl)phenyl)quinoline-7-carboxylic acid] |
| > 10000 nM | CC(F)(F)C1CCN(c2nc3cc(C(=O)O)ccc3n3cccc23)CC1 [I-14, 4-(4-(1,1-Difluoroethyl)piperidin-1-yl)pyrrolo[1,2-a]quinoxaline-7-carboxylic acid] |
| ≤ 1000 nM | COc1cc(-c2ccc(C(F)(F)F)cc2)nc2cc(C(=O)N[C@@H](CO)Cc3ccccc3)ccc12 [I-369, (R)—N-(1-hydroxy-3-phenylpropan-2-yl)-4-methoxy-2-(4-(trifluoromethyl)phenyl)quinoline-7-carboxamide] |
| ≤ 1000 nM | C=CC(=O)NCc1cn2cccc2c(-c2ccc(C(C)(C)C)cc2)n1 [I-111, N-((1-(4-(tert-butyl)phenyl)pyrrolo[1,2-a]pyrazin-3-yl)methyl)acrylamide] |
| 1000 to 5000 nM | O=C(O)c1ccc2c(c1)nc(N1CCC3(CC1)CC(F)(F)C3)c1cccn12 [I-32, 4-(2,2-Difluoro-7-azaspiro [3.5]nonan-7-yl) pyrrolo[1,2-a] quinoxaline-7-carboxylic acid] |
| ≤ 1000 nM | O=C(O)c1ccc2c(c1)nc(-c1ccc(C(F)(F)F)cc1F)c1cccn12 [I-50, 4-(2-fluoro-4-(trifluoromethyl)phenyl) pyrrolo[1,2-a] quinoxaline-7-carboxylic acid] |
| 1000 to 5000 nM | O=C(O)c1ccc2c(c1)nc(-c1ccc(C(F)(F)F)cc1)c1nccn12 [I-61, 4-(4-(Trifluoromethyl)phenyl)imidazo[1,2-a]quinoxaline-7-carboxylic acid] |
| 1000 to 5000 nM | C=CC(=O)NCc1cn2ccnc2c(N2CCC3(CC2)CC3)n1 [I-437, N-((8-(6-azaspiro[2.5]octan-6-yl)imidazo[1,2-a]pyrazin-6-yl)methyl)acrylamide] |

| GI50 | SMILES |
| --- | --- |
| 5000 to 10000 nM | COc1cc(C(F)(F)F)ccc1-c1nc2cc(C(=O)O)ccc2n2cccc12 [I-55, 4-(2-Methoxy-4-(trifluoromethyl)phenyl)pyrrolo[1,2-a]quinoxaline-7-carboxylic acid] |
| 1000 to 5000 nM | CC[C@H](CO)NC(=O)c1ccc2c(OC)cc(-c3ccc(C(F)(F)F)cc3C(F)(F)F)nc2c1 [I-338, (R)-2-(2,4-bis(trifluoromethyl)phenyl)-N-(1-hydroxybutan-2-yl)-4-methoxyquinoline-7-carboxamide] |
| 1000 to 5000 nM | COc1cc(-c2ccc(C(F)(F)F)cc2)nc2cc(C(=O)NC(C)(C)CO)ccc12 [I-352, N-(1-hydroxy-2-methylpropan-2-yl)-4-methoxy-2-(4-(trifluoromethyl)phenyl)quinoline-7-carboxamide] |
| 1000 to 5000 nM | C[C@H](CO)NC(=O)c1ccc2ccc(-c3ccc(C(F)(F)F)cc3)nc2c1 [I-427, (R)—N-(1-hydroxypropan-2-yl)-2-(4-(trifluoromethyl)phenyl)quinoline-7-carboxamide] |
| > 10000 nM | O=C(O)c1ccc2c(c1)nc(C1CCCCC1)c1nccn12 [I-68, 4-Cyclohexylimidazo[1,2-a]quinoxaline-7-carboxylic acid] |
| > 10000 nM | CC(C)(C)c1ccc(-c2nc3cc(-c4nnn[nH]4)ccc3n3ccnc23)cc1 [I-76, 4-(4-(tert-Butyl)phenyl)-7-(1H-tetrazol-5-yl)imidazo[1,2-a]quinoxaline] |
| ≤ 1000 nM | C=CC(=O)NCc1cn2cccc2c(-c2ccc(C(F)(F)F)cc2)n1 [I-319, N-((1-(4-(trifluoromethyl)phenyl)pyrrolo[1,2-a]pyrazin-3-yl)methyl)acrylamide] |
| 1000 to 5000 nM | C=CC(=O)NCc1cn2ccnc2c(-c2ccc(C(F)(F)F)cn2)n1 [I-313, N-((8-(5-(trifluoromethyl)pyridin-2-yl)imidazo[1,2-a]pyrazin-6-yl)methyl)acrylamide] |
| ≤ 1000 nM | COc1cc(-c2ccc(C(F)(F)F)cc2)nc2cc(C(=O)N[C@@H](CO)c3ccncc3)ccc12 [I-366, (R)—N-(2-hydroxy-1-(pyridin-4-yl)ethyl)-4-methoxy-2-(4-(trifluoromethyl)phenyl)quinoline-7-carboxamide] |
| ≤ 1000 nM | COc1cc(-c2ccc(C(F)(F)F)cc2F)nc2cc(C(=O)N[C@H](C)CO)ccc12 [I-337, (R)-2-(2-fluoro-4-(trifluoromethyl)phenyl)-N-(1-hydroxypropan-2-yl)-4-methoxyquinoline-7-carboxamide] |
| 5000 to 10000 nM | C=CC(=O)NC1CCCc2ccc(-c3ccc(C(F)(F)F)cc3)nc21 (stereo not shown) [I-412, N-(2-(4-(trifluoromethyl)phenyl)-5,6,7,8-tetrahydroquinolin-8-yl)acrylamide] |
| 1000 to 5000 nM | C=CC(=O)NCc1nc(-c2ccc(C(F)(F)F)cc2)n2cccnc12 [I-438, N-((6-(4-(trifluoromethyl)phenyl)imidazo[1,5-a]pyrimidin-8-yl)methyl)acrylamide] |
| > 10000 nM | O=C(O)c1ccc2c(c1)nc(-c1ccc(C3(C(F)(F)F)CC3)cc1)c1nccn12 [I-67, 4-(4-(1-(Trifluoromethyl)cyclopropyl)phenyl)imidazo[1,2-a]quinoxaline-7-carboxylic acid] |
| ≤ 1000 nM | C=CC(=O)Nc1ccc2c(C)cc(-c3ccc(C(C)(C)C)cc3)nc2c1 [I-86, N-(2-(4-(tert-Butyl)phenyl)-4-methylquinolin-7-yl)acrylamide] |
| 1000 to 5000 nM | O=C(O)c1ccc2c(c1)nc(NC1CCC(C(F)(F)F)CC1)c1cccn12 (stereo not shown) [I-18, 4-((4-(Trifluoromethyl)cyclohexyl)amino)pyrrolo[1,2-a]quinoxaline-7-carboxylic acid] |
| ≤ 1000 nM | COc1cccc([C@H](C)NC(=O)c2ccc3c(C)cc(-c4ccc(C(F)(F)F)cc4)nc3c2)c1 [I-268, (S)—N-(1-(3-methoxyphenyl)ethyl)-4-methyl-2-(4-(trifluoromethyl)phenyl)quinoline-7-carboxamide] |
| ≤ 1000 nM | O=C(O)c1ccc2c(c1)nc(Oc1ccc(C(F)(F)F)cc1)c1cccn12 [I-23, 4-(4-(Trifluoromethyl)phenoxy) pyrrolo[1,2-a] quinoxaline-7-carboxylic acid] |
| 1000 to 5000 nM | C=CC(=O)NCc1cn2ccnc2c(-c2ccc(F)cc2)n1 [I-110, N-((8-(4-fluorophenyl)imidazo[1,2-a]pyrazin-6-yl)methyl)acrylamide] |
| 1000 to 5000 nM | CC(C)(C)c1ccc(-c2nc3cc(NS(C)(=O)=O)ccc3n3cccc23)cc1 [I-122, N-(4-(4-(tert-butyl)phenyl)pyrrolo[1,2-a]quinoxalin-7-yl)methanesulfonamide] |
| 5000 to 10000 nM | O=C(O)c1ccc2c(C3CCOCC3)cc(-c3ccc(C(F)(F)F)cc3)nc2c1 [I-390, 4-(tetrahydro-2H-pyran-4-yl)-2-(4-(trifluoromethyl)phenyl)quinoline-7-carboxylic acid] |
| ≤ 1000 nM | C=CC(=O)NCc1cn2ccnc2c(-c2ccc(C(F)(F)F)cc2F)n1 [I-175, N-((8-(2-Fluoro-4-(trifluoromethyl)phenyl)imidazo[1,2-a]pyrazin-6-yl)methyl)acrylamide] |

— patent publication US12655150B2 (Cedilla Therapeutics, Inc., priority 2021, dated 2026)
